Test results: patent US20080145313A1, “Compositions and Methods for the Treatment and Prevention of Neoplastic Disorders” (Genesis Research & Development Corporation Limited, priority 2006, published 2008)

Legend:
RRM1 mRNA = RRM1 mRNA level by quantitative RT-PCR in A549 cells; format: cell-based, human; details: 0.01 nM siRNA; 24 h post-transfection
Protocol: RNA was purified from cells using Trizol® extraction as per the manufacturer's protocol (Invitrogen). cDNA was prepared by digesting approximately 200 ng purified RNA with DNAse I (Invitrogen) for 15 minutes at room temperature, followed by 15 minutes at 65° C. in the presence of 25 mM EDTA. 30 ng random primers were added and incubated for 10 minutes at room temperature, 1 minute on ice; Superscript III polymerase (Invitrogen) was added in presence of 5 nM DTT (Sigma, St Louis, Mo.) and 1 mM deoxyribonucleotides (Invitrogen), and the reaction incubated at 25° C. for 5 minutes, followed by an hour at 55° C. cDNA was diluted 1:3 in 10 mM Tris pH 7.0, and quantitative RT-PCR carried out on an ABI Prism 7900HT (Applied Biosciences, Inc., Foster City, Calif.) using FastStart TaqMan SYBRGreen (Roche, Basel, Switzerland) and specific primers at 360 nM for RRM1 and RRM2 and the housekeeping genes HPRT and Lamin. Primer sequence pairs used for RRM1, RRM2, HPRT and lamin are given in SEQ ID NO: 4881 and 4882; 4883 and 4884; 4885 and 4886; 4887 and 4888 respectively.

A549 cells = experiment: Growth inhibition of siRNA-transfected A549 cells, SYBR Green I DNA content; format: cell-based, human; details: 10 nM siRNA; DNA content 96 hours after transfection
Method in brief: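 Growth read-out: cellular DNA quantified with SYBR Green I (485/535 nm) 96 h after transfection, cells frozen, thawed and lysed in PBS/1% Triton X-100, pH 7. Cells (A549, 5×10^3 cells/cm^2) received 10 nM siRNA by RNAiMAX; non-specific siRNA served as control; triplicate wells averaged.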

SEQ ID NO: 4830: Stealth siRNA targeting RRM1 (chain 1 AAGATCTGCTTATTCAGTAACTGGG; chain 2 AAGAUCUGCUUAUUCAGUAACUGGG; Commercial Stealth siRNA duplex, modification pattern not given here; one strand in two spellings)
RRM1 mRNA expression (RRM1 mRNA): effectively silenced
Growth Inhibition in A549 cells (A549 cells): ++ (inhibits by at least 75%)
